Results taken from patent US20080227806A1, “Novel Drugs for Dementia” (AMERICAN LIFE SCIENCE PHARMACEUTICALS, priority 2005, published 2008).
Several values for one entry are separate records, joined by “and”; a condition that tells them apart may be missing. Equal entries are not always repeated.

Experiments:
hippocampus neurons = settings: primate ischemic animal model; cited from earlier work
total Aβ (Ab40 and Ab42) = experiment: Brain total Aβ by ELISA after icv infusion into guinea pig brains; assay type: in vivo; settings: constant icv infusion, 1 mg/ml
Source text: (§1) In vivo icv administration of protease inhibitors into guinea pig brains. Guinea pigs (Harley strain, 300-500 grams) were obtained from Charles River (Wilmington, Mass.). The animals were given free access to food and water before and during the experiment. An ALZET osmotic mini-pump (ALZET company, Cupertino, Calif.) was implanted subcutaneously in the mid-scapular area of the back of each animal. A catheter was connected to the osmotic mini-pump and inserted into the lateral ventricle of the brain (using a brain infusion kit manufactured by ALZET).
(§2) E64d or CA074Me (from CalBiochem, San Diego, Calif.) were each administered to guinea pig brains by icv minipump infusion at a rate of […] with each compound at 1 mg/ml in saline (with 1.5% DMSO). Each e64d and control group consisted of five animals; each CA074Me and control group consisted of ten animals. Continuous infusion was conducted for 7 days and 30 days. At the end of each infusion period, animals were sacrificed and half the brain was prepared as extracts for ELISA measurement of Aβ peptide levels conducted in triplicate with Ab ELISAs (from Biosource International). The other half brain was used for isolation of synaptosome preparations and Ab analyses.
(§3) Brain Extracts. Brain extracts were prepared by subjecting fresh tissues to homogenization at 1:10 w/v in guanidine buffer consisting of 5 M guanidine-HCl in 50 mM Tris-HCl, pH 8.3 (buffer reagents from Sigma-Aldrich, St. Louis, Mo.). Homogenates were agitated at room temperature for 3-4 hours, then stored at −20° C. The day before the ELISA assay, the tissue samples were diluted further by 1:10 for a final guanidine concentration of 0.5 M. These diluted homogenates were then centrifuged at 14,000 rpm for 20 minutes at 4° C. and supernatants were collected for measurement of total Ab, and Aβ40 and Aβ42 separately, by ELISA assay. Isolation of synaptosomes from brain. Synaptosomes were prepared by homogenization of fresh brain tissue in isotonic sucrose (320 mM), pH 7.4, 1 mM EDTA, 0.25 mM dithiothreitol, and 30 U/ml RNAse inhibitor. […] For quantitation of Aβ peptides, ELISA assays were used to measure Aβ levels. […] CTFβ fragments derived from APP were analyzed by western blots with antibody MAB 1560 (Chemicon, Temecula, Calif.). The sAPPα fragment derived from APP was analyzed by western blots with antibody MAB 343 (Chemicon, Temecula, Calif.). […]
(§4) Data Analyses. Data were analyzed by one-way analysis of variance for analyses of statistical significance of the effects of compounds on Ab levels, with p<0.05 indicating statistical significance, using GraphPad Prism software program. Following ANOVA analyses among treatment groups, individual group values for Ab levels were analyzed using Dunnett's multiple comparison test. […]

[1] = Japan; cited from earlier work
[2] = rats, high dose; cited from earlier work
[3] = Phase III study; cited from earlier work
synaptosome Aβ = experiment: Synaptosome total Aβ by ELISA after icv infusion; assay type: in vivo; settings: guinea pig
Source text: as §1, §2, §3, §4

sAPPα = experiment: Brain sAPPα by western blot densitometry after icv infusion; assay type: in vivo; settings: guinea pig, 7 days, densitometric scanning of western blots
Source text: as §1, with “ALZET). […]” for “ALZET).”
(§5) Brain Extracts. […] For quantitation of Aβ peptides, ELISA assays were used to measure Aβ levels. […] CTFβ fragments derived from APP were analyzed by western blots with antibody MAB 1560 (Chemicon, Temecula, Calif.). The sAPPα fragment derived from APP was analyzed by western blots with antibody MAB 343 (Chemicon, Temecula, Calif.). […]
as §4

Aβ42 = experiment: Brain Aβ42 by specific ELISA after icv infusion; assay type: in vivo; settings: guinea pig, 7 days
Source text: as §1, with “ALZET). […]” for “ALZET).”
as §5, §4

CTFβ = experiment: Brain CTFβ by western blot densitometry after icv infusion; assay type: in vivo; settings: guinea pig, 7 days, densitometric scanning of western blots
Source text: as §1, with “ALZET). […]” for “ALZET).”
as §5, §4

Aβ40 = experiment: Brain Aβ40 by specific ELISA after icv infusion; assay type: in vivo; settings: guinea pig, 7 days
Source text: as §1, with “ALZET). […]” for “ALZET).”
as §5, §4

| SMILES | protection of brain neurons during ischemia (hippocampus neurons) | reduction of brain total Aβ relative to control (total Aβ (Ab40 and Ab42); 7 days) | reduction of brain total Aβ relative to control (total Aβ (Ab40 and Ab42); 30 days) | Phase I clinical trial outcome [1] | liver toxicity [2] | efficacy for muscular dystrophy [3] | reduction of synaptosome Aβ relative to controls (synaptosome Aβ; 7 days) | reduction of synaptosome Aβ relative to controls (synaptosome Aβ; 30 days) | increase in brain sAPPα above control (sAPPα) | reduction of Aβ42 in brain (Aβ42) | reduction in brain CTFβ relative to controls (CTFβ) | reduction of Aβ40 in brain extracts (Aβ40) |
| --- | --- | --- | --- | --- | --- | --- | --- | --- | --- | --- | --- | --- |
| CC(C)CCNC(=O)C(CC(C)C)NC(=O)C1OC1C(=O)O (centres unmarked) [e64c, 3-[3-methyl-1-(3-methyl-butylcarbamoyl)-butylcarbamoyl]-oxirane-2-carboxylic acid] | protect hippocampus neurons from damage | – | – | – | – | – | – | – | – | – | – | – |
| CCCNC(=O)C1OC1C(=O)NC(C(=O)N1CCCC1C(=O)O)C(C)CC (centres unmarked) [CA074, 1-{3-methyl-2-[(3-propylcarbamoyl-oxiranecarbonyl)-amino]-pentanoyl}-pyrrolidine-2-carboxylic acid] | protect hippocampus neurons from damage | – | – | – | – | – | – | – | – | – | – | – |
| CCOC(=O)[C@H]1O[C@@H]1C(=O)N[C@@H](CC(C)C)C(=O)NCCC(C)C [E64d, oxiranecarboxylic acid, 3-[[[(1S)-3-methyl-1-[[(3-methylbutyl)amino]carbonyl]butyl]amino]carbonyl], ethyl ester] | – | 31% | 55% | successfully passed Phase I clinical trials | liver toxicity was found | low efficacy for muscular dystrophy | 27% | 50% | – | – | – | – |
| CCCNC(=O)[C@H]1O[C@@H]1C(=O)N[C@H](C(=O)N1CCC[C@H]1C(=O)OC)[C@@H](C)CC [CA074Me, L-Proline, N[[(2S,3S)3[(propylamino)carbonyl]oxiranyl]carbonyl]-L-isoleucyl-, methyl ester] | – | 57% | 62% | – | – | – | 62% | 74% | 60% | 56% | 45% and 44% | 47% |
